{"source": "patent US8288512B2", "about": "“Use of amphiphilic self-assembling proteins for formulating poorly water-soluble effect substances” (BASF SE, priority 2006, dated 2012)", "key": {"[1]": {"conditions": "cited from earlier work"}, "proteinase K": {"target": "proteinase K (Parengyodontium album, UniProt P06873)", "sequence (P06873 106-384)": "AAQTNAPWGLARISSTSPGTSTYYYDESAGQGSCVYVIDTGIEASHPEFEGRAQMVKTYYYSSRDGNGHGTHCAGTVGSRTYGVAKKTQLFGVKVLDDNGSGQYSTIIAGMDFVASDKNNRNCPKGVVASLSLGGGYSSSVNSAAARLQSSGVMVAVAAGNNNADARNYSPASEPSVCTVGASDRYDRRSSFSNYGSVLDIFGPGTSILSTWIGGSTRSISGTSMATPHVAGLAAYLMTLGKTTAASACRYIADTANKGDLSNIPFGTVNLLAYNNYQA", "test": "Release of metazachlor from C16 protein microbeads by proteinase K digestion", "protocol": "The lyophilized metazachlor-comprising C16 protein microbeads were proteolytically digested in 1 ml of 10 mM Tris buffer; 0.1% SDS; 100 μg of proteinase K for 1 h at 37° C. The active substance crystals remaining from the mixture after centrifugation for 10 minutes (20000×g) were dissolved in 500 μl of isopropanol. About 11% of the amount of metazachlor used was detected in the supernatant of the protease digestion. The active substance crystals redissolved in isopropanol constituted about 35% of the amount of metazachlor used.\n(§1) Analysis of the Active Substance Distribution (Photometric Determination at λ=215 nm)"}, "[2]": {"test": "Packing of metazachlor in C16 protein microbeads, active substance distribution (photometric at 215 nm)", "assay_type": "physicochemical", "protocol": "500 μl of a 10 mg/ml C16 protein-comprising potassium phosphate solution (5 mM, pH 8.0) were mixed with 100 μl of a metazachlor solution (50 mg/ml in isopropanol). C16 Protein microbead formation was induced by adding 1 ml of 1 M potassium phosphate buffer (pH 8.0). The mixture was incubated for 1 h at room temperature and then centrifuged for 10 min at 20000×g. The pellet was washed twice with 5 ml of double-distilled H2O and then lyophilized. An identical mixture without C16 protein was carried out as control.\nIn each case, about 20% of the active substance were present in the wash supernatants.\nas §1"}, "[3]": {"conditions": "of the amount of metazachlor used"}, "[4]": {"conditions": "proteinase K, 1 h, 37° C., 5.0 mg metazachlor used"}}, "note": "Read-outs that look alike come from different tables or passages of the source.", "data": [{"molecule": "NC(=O)N1c2ccccc2C=Cc2ccccc21", "note": "[Carbamazipine]", "values": [{"measurement": "Solubility in water", "setting": "[1]; RT", "result": 945.1, "unit": "µg/mL"}]}, {"molecule": "Clc1ccccc1C(c1ccccc1)(c1ccccc1)n1ccnc1", "note": "[Clotrimazole]", "values": [{"measurement": "Solubility in water", "setting": "[1]; 25° C.", "result": "<10", "unit": "µg/mL"}]}, {"molecule": "Cc1cccc(C)c1N(Cn1cccn1)C(=O)CCl", "note": "[metazachlor]", "values": [{"measurement": "Active substance crystals redissolved in isopropanol", "setting": "proteinase K; [3]", "result": "about 35%"}, {"measurement": "Metazachlor detected in the supernatant of the protease digestion", "setting": "proteinase K; [3]", "result": "About 11%"}, {"measurement": "Amount of substance, pellet after digestion in isopropanol", "setting": "proteinase K; [4]", "result": 1.74, "unit": "mg"}, {"measurement": "Amount of substance, supernatant after protease digestion", "setting": "proteinase K; [4]", "result": 0.55, "unit": "mg"}, {"measurement": "Crystal formation after potassium phosphate precipitation", "setting": "[2]; mixture with C16 protein", "result": "no metazachlor crystals were visible"}, {"measurement": "Crystal formation after potassium phosphate precipitation", "setting": "[2]; mixture without C16 protein", "result": "large active substance crystals were formed"}]}, {"molecule": "C16 protein: synthetic spider silk protein with the polypeptide sequence shown in SEQ ID NO: 1 (protein, Synthetic spider silk C16 protein) MASMTGGQQMGRGSMGSSAAAAAAAASGPGGYGPENQGPSGPGGYGPGGPGSSAAAAAAAASGPGGYGPENQGPSGPGGYGPGGPGSSAAAAAAAASGPGGYGPENQGPSGPGGYGPGGPGSSAAAAAAAASGPGGYGPENQGPSGPGGYGPGGPGSSAAAAAAAASGPGGYGPENQGPSGPGGYGPGGPGSSAAAAAAAASGPGGYGPENQGPSGPGGYGPGGPGSSAAAAAAAASGPGGYGPENQGPSGPGGYGPGGPGSSAAAAAAAASGPGGYGPENQGPSGPGGYGPGGPGSSAAAAAAAASGPGGYGPENQGPSGPGGYGPGGPGSSAAAAAAAASGPGGYGPENQGPSGPGGYGPGGPGSSAAAAAAAASGPGGYGPENQGPSGPGGYGPGGPGSSAAAAAAAASGPGGYGPENQGPSGPGGYGPGGPGSSAAAAAAAASGPGGYGPENQGPSGPGGYGPGGPGSSAAAAAAAASGPGGYGPENQGPSGPGGYGPGGPGSSAAAAAAAASGPGGYGPENQGPSGPGGYGPGGPGSSAAAAAAAASGPGGYGPENQGPSGPGGYGPGGPG", "values": [{"measurement": "Effect on the crystallization of metazachlor", "setting": "[2]; in the presence of aqueous potassium phosphate buffer", "result": "significant inhibitiory effect"}]}]}
